Structures are written as SMILES. Calls of active or inactive are those of the source. No cut-off for these calls is given here. A value given as a limit tells only on which side of the number the result lay.

Series [1] is described as follows: Toxicity against human KIF5 cells incubated for 24 hrs by CellTiter Blue cell viability assay. It is filed as cell-based.
A further series deals with Acetylcholinesterase (Homo sapiens, UniProt P22303). The experiment in a line: Inhibition of human AChE pre-incubated for 10 mins before acetylthiocholine iodide substrate addition.
Sequence of Acetylcholinesterase (P22303 whole entry): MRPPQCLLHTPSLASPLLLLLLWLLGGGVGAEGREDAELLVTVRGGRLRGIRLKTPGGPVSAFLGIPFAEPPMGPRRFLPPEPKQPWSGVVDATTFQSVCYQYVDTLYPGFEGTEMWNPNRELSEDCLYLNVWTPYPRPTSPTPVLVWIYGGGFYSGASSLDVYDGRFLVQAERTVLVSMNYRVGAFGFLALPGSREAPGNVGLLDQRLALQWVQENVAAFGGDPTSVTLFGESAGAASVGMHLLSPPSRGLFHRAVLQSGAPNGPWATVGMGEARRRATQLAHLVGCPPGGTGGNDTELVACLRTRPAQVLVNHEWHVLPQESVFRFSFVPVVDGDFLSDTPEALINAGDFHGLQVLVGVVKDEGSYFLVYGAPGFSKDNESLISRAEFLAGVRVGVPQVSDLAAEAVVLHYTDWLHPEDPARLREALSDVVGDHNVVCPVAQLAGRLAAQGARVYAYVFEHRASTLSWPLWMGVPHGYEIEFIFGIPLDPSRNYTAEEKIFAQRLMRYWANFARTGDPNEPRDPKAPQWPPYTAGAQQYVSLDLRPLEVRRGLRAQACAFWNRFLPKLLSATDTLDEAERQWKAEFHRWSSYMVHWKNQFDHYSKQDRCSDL
In the next series the test system is Bacillus subtilis. The experiment in a line: Antimicrobial activity against Bacillus subtilis DSM 347 incubated for 5 hrs by resazurin dye based assay. The series is classed as functional, organism-based. As to conditions: DSM 347, 5 h.
For a further series, the system named is Xanthomonas campestris. The experiment in a line: Antimicrobial activity against Xanthomonas campestris DSM 2405 incubated for 6 hrs by resazurin dye based assay. The series is classed as functional, organism-based.
In a further series the test system is Candida albicans. Briefly: Antimicrobial activity against Candida albicans DSM 1386 incubated for 5 hrs by resazurin dye based assay. It is filed as functional, organism-based.

Turning to `Oc1ccc2nc3ccccc3nc2c1`, in series [1], the concentration for half-maximal inhibition (IC50) at 24 h is above 50 µM. In addition, the IC50 on Acetylcholinesterase was above 50 µM; with Bacillus subtilis, 75 µM.
With `CC/C(=C(\c1ccccc1)c1ccc(OCCN(C)C)cc1)c1ccccc1` [TAMOXIFEN], the IC50 at 24 h in series [1] was determined as 23.8 µM.
Regarding `CC(=O)Oc1cccc2nc3c(OC(C)=O)ccc(C/C=C(\C)CCC=C(C)C)c3nc12` [DIACETYLGERANYLPHENAZINEDIOL], the result in the series on Xanthomonas campestris and in the series with Candida albicans was inactive. The molecule also showed an IC50 at 24 h in series [1] above 50 µM. Besides, the IC50 against Acetylcholinesterase came to 2.01 µM; in the series on Bacillus subtilis it was 13 µM.
`O=C(O)c1cccc2nc3ccccc3nc12` [PHENAZINE-1-CARBOXYLIC ACID] returned an IC50 at 24 h in series [1] above 50 µM. Moreover, the figures for the IC50 against Acetylcholinesterase and in the series on Bacillus subtilis were above 50 µM and above 150 µM, respectively.
As for `CC(C)=CCC/C(C)=C/Cc1ccc(O)c2nc3cccc(O)c3nc12` [GERANYLPHENAZINEDIOL], the outcome with Xanthomonas campestris and with Candida albicans was inactive. In series [1], the IC50 at 24 h is above 50 µM. Also, the IC50 stood at 2.62 µM at Acetylcholinesterase and 24 µM in the series with Bacillus subtilis.
In series [1], `CC(C)=CCc1cc(=O)cc2n(C)c3cccc(C(=O)O)c3nc1-2` [ENDOPHENAZINE B] yielded an IC50 at 24 h above 50 µM. Further, the IC50 on Acetylcholinesterase was above 50 µM; in the series on Bacillus subtilis it was above 150 µM.
Turning to `Oc1cccc2nc3c(O)cccc3nc12`, the concentration for half-maximal inhibition (IC50) at 24 h in series [1] is above 50 µM. The half-inhibitory concentration (IC50) against Acetylcholinesterase was 4.52 µM; in the series with Bacillus subtilis, 22 µM.
For the molecule `O=C(N[C@H](CO)[C@H](O)c1ccc([N+](=O)[O-])cc1)C(Cl)Cl` [CHLORAMPHENICOL], half-maximal inhibition in the series with Bacillus subtilis (IC50) was put at 1.45 µM.
Regarding `CC(C)=CCc1cccc2nc3cccc(C(=O)O)c3nc12` [ENDOPHENAZINE A], the IC50 at 24 h in series [1] was above 10 µM. Moreover, the IC50 on Acetylcholinesterase is above 50 µM; in the series with Bacillus subtilis, 111 µM.

Source of the values: ChEMBL document CHEMBL2069170, “Geranylphenazinediol, an acetylcholinesterase inhibitor produced by a Streptomyces species” (J Nat Prod, 2012).
